Experimental data from patent publication US4609733A, “3-keto-substituted-N-pyridylindoles” (Ciba-Geigy Corporation, priority 1984, dated 1986).

Legend:
[1] = target: T1, prostaglandin cyclooxygenase (Bos taurus, UniProt O62664); experiment: in-vitro effect on prostaglandin cyclooxygenase; assay type: biochemical; details: read-out: IC50 for cyclooxygenase inhibition
T1 construct: from tissue; host or cells: bovine seminal vesicles (microsomes)
T1 sequence (O62664 25-600): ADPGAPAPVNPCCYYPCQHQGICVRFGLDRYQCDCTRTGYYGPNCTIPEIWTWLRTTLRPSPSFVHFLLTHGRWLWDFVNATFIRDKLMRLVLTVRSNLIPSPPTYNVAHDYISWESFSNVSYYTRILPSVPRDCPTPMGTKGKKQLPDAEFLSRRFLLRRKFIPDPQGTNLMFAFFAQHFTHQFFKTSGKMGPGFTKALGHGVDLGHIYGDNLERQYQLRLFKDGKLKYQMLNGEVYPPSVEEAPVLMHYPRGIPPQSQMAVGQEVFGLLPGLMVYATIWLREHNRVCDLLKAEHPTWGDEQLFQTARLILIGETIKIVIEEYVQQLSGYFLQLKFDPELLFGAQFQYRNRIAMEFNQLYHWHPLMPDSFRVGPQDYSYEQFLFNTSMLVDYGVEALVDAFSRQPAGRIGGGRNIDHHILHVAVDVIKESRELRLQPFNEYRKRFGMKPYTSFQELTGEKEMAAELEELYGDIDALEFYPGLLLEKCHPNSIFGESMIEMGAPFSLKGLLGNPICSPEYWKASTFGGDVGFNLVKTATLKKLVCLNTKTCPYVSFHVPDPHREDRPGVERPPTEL
Method: The in-vitro effect on prostaglandin cyclooxygenase is measured by a modification of the method of Takeguchi et al. described in Biochemistry 10, 2372 (1971); the testing procedure is described in U.S. Pat. No. 4,460,777.

thromboxane synthetase = target: T2, thromboxane synthetase (Homo sapiens, UniProt P24557); experiment: in vitro inhibition of the thromboxane synthetase enzyme; assay type: biochemical
T2 construct: from tissue; host or cells: human platelets (microsomes)
T2 sequence (P24557 1-533): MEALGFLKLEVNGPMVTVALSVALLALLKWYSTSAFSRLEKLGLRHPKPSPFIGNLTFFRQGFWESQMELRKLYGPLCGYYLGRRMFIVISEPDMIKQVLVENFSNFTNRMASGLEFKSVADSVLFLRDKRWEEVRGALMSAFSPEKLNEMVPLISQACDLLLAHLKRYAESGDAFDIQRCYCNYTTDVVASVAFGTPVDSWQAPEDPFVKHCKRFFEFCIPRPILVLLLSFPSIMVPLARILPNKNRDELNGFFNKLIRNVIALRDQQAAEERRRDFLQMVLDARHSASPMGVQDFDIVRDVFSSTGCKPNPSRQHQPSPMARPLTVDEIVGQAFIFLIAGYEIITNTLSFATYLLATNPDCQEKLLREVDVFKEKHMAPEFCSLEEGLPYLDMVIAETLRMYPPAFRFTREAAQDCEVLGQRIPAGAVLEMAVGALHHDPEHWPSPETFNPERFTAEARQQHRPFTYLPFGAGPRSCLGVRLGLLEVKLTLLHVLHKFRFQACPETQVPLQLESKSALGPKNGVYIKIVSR
Excerpt: Res. Comm. 74, 1432 (1977). The testing procedure is essentially carried out as described in U.S. Pat. No. 4,460,777.

SMILES	IC50 [1] [µM]	IC50 (thromboxane synthetase) [µM]
O=C(O)CCCCc1cn(-c2cccnc2)c2ccccc12 [3-(4-carboxybutyl)-N-(3-pyridyl)indole, 3-(4-carboxybutyl)-N-(3-pyridyl)-indole]	> 1000	
O=C(O)CCCC(=O)c1cn(-c2cccnc2)c2ccccc12 [Example 2, 3-(1-oxo-4-carboxybutyl)-N-(3-pyridyl)-indole]		~0.4
